Data on two molecules can be found in EP0796866A1, “Antithrombotic diamides” (ELI LILLY AND COMPANY, priority 1996, dated 1997).

Assay type in all cases: biochemical
In one experiment the target is T1, human thrombin (Homo sapiens, UniProt P00734).
T1 construct: purified human thrombin; purchased Enzyme Research Laboratories, South Bend, Indiana
Description: inhibition of the amidase activity of thrombin (chromogenic substrate), Kass. Particulars: hypothetical equilibrium (association) constant thrombin + test compound; mean over a range of concentrations; pH 7.4. On the procedure:
The assay is carried out by mixing 50 µl buffer (0.03M Tris, 0.15M NaCl, pH 7.4) with 25 µl of human thrombin solution (purified human thrombin, Enzyme Research Laboratories, South Bend, Indiana, at 8 NIH units/ml) and 25 µl of test compound in a solvent (50% aqueous methanol (v:v)). Then 150 µl of an aqueous solution of the chromogenic substate (at 0.25 mg/ml) are added and the rates of hydrolysis of the substrate are measured by monitoring the reactions at 405 nm for the release of p-nitroaniline. Standard curves are constructed by plotting free thrombin concentration against hydrolysis rate. The hydrolysis rates observed with test compounds are then converted to "free thrombin" values in the respective assays by use of the standard curves. The bound thrombin (bound to test compound) is calculated by subtracting the amount of free thrombin observed in each assay from the known initial amount of thrombin used in the assay. The amount of free inhibitor in each assay is calculated by subtracting the number of moles of bound thrombin from the number of moles of added inhibitor (test compound). […]
Kass is calculated for a range of concentrations of test compounds and the mean value reported in units of liter per mole. […] For example, each of the particularly preferred examples of the invention listed above was determined to have a Kass of at least 5 X 10^6 L/mole.

For experiment [1], the system named is human or animal plasma. The experiment is described as follows: activated partial thromboplastin time (APTT) coagulation assay in plasma. Conditions: concentration required to double the clotting time, linear extrapolation; Actin reagent, CaCl2. On the procedure: (§1) Dog plasma and rat plasma are obtained from conscious mixed-breed hounds (either sex, hazelton-LRE, Kalamazoo, Michigan, U.S.A.) or from anesthetized male Sprague-Dawley rats (Harlan Sprague-Dawley, Inc., Indianapolis, Indiana, U.S.A.) by venipuncture into 3.8 percent citrate. Fibrinogen is prepared from in-date ACD human blood as the fraction I-2 according to previous procedures and specifications. Smith, Biochem. J., 185, 1-11 (1980); and Smith, et al., Biochemistry, 11, 2958-2967 (1972). Human fibrinogen is also purchased as 98 percent pure/plasmin free from American Diagnostica, Greenwich, Connecticut. Coagulation reagents ACTIN, Thromboplastin, and Human plasma are from Baxter Healthcare Corp., Dade Division, Miami, Florida. […]
(§2) Coagulation assay procedures are as previously described. […] The thrombin time (TT) is measured by adding 0.05 ml saline and 0.05 ml thrombin (10 NIH units/ml) to 0.05 ml test plasma. The activated partial thromboplastin time (APTT) is measured by incubation of 0.05 ml test plasma with 0.05 ml Actin reagent for 120 seconds followed by 0.05 ml CaCl2 (0.02 M). The prothrombin time (PT) is measured by adding 0.05 ml saline and 0.05 ml Thromboplastin-C reagent to 0.05 ml test plasma. […] Each of the particularly preferred examples of the invention listed above was determined to have a TT value of less than 100 ng/mL. […]

Experiment [2] has as its system human or animal plasma. Description: prothrombin time (PT) coagulation assay in plasma. Particulars: concentration required to double the clotting time, linear extrapolation; Thromboplastin-C reagent. On the procedure: as §1, §2
Experiment [3] concerns human or animal plasma. Description: thrombin time (TT) coagulation assay in plasma. Conditions: concentration required to double the clotting time, linear extrapolation; thrombin 10 NIH units/ml. On the procedure: as §1, §2

As usually defined, the Kd is the free concentration of one partner at which half of the binding sites on the other are occupied at equilibrium, for simple one-to-one binding.

Structures can show the parent of a compound that is named as a salt.

Take `O=C(O)CN[C@H](CC1CCCCC1)C(=O)N1CCC[C@H]1C(=O)NC/C=C/c1c[nH]cn1` [Example 7, N-(carboxymethyl)-D-cyclohexylalanyl-N-[(E)-3-(imidazol-4-yl)prop-2-enyl]-L-prolinamide hydrochloride]: the Kd at human thrombin was 17.5 nM. Further, in the experiment on human or animal plasma [1], the APTT was 280 ng/mL. Further, the PT in the experiment with human or animal plasma [2] is reported as 430 ng/mL. For the same molecule, the TT in the experiment on human or animal plasma [3] is 30 ng/mL.

As for `O=C(O)CN[C@H](CC1CCCCC1)C(=O)N1CCC[C@H]1C(=O)NCCCc1c[nH]cn1` [Example 8, N-(carboxymethyl)-D-cyclohexylalanyl-N-[3-(imidazol-4-yl)propyl]-L-prolinamide hydrochloride], on human thrombin, the Kd is 12.5 nM. Moreover, the APTT in the experiment on human or animal plasma [1] is on record as 170 ng/mL. Further, the PT in the experiment with human or animal plasma [2] is given as 380 ng/mL. Further, the TT with human or animal plasma [3] is recorded as 20 ng/mL.
